Like-named read-outs stand apart in the source and are kept apart here.
What was measured:
Amα1/Amα8/Amβ1 nAChR = molecular target: T1, Amα1/Amα8/Amβ1 nAChR (Apis mellifera, UniProt A0A7M7MMZ9+A0A8U0WQ70+A0A8U0WQC0); assay: cell-based; design: species or system Xenopus laevis oocytes; details: Oocyte
T1 sequence (A0A7M7MMZ9 44-627): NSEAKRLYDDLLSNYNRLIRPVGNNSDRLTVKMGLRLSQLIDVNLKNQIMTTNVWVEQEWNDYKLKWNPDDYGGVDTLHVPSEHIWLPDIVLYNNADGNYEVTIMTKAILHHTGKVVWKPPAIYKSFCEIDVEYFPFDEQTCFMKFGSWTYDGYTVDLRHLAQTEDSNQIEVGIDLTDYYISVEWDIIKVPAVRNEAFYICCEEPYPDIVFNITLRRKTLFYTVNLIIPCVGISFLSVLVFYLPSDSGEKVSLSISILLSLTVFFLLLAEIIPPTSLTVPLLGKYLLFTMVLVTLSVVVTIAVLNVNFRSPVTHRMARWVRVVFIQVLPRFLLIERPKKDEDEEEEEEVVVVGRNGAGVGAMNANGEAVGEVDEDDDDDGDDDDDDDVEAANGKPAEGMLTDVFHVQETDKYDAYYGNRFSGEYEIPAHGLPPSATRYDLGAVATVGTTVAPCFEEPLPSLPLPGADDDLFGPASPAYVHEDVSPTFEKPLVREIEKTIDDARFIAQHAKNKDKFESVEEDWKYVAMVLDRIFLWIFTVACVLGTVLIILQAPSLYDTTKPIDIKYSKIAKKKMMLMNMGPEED
T1 sequence (A0A8U0WQ70 25-537): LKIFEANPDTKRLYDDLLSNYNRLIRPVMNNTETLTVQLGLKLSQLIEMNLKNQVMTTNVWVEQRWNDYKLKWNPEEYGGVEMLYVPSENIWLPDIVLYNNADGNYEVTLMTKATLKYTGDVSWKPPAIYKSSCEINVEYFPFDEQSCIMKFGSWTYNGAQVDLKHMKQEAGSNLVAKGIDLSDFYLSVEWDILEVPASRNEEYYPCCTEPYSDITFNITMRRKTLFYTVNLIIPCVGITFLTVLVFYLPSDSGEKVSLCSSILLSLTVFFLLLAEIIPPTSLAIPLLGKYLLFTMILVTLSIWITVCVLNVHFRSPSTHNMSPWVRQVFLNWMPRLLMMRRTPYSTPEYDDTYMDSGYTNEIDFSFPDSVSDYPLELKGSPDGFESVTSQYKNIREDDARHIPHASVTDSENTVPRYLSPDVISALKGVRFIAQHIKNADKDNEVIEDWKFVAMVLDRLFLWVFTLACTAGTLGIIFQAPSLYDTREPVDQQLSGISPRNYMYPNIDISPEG
T1 sequence (A0A8U0WQC0 25-520): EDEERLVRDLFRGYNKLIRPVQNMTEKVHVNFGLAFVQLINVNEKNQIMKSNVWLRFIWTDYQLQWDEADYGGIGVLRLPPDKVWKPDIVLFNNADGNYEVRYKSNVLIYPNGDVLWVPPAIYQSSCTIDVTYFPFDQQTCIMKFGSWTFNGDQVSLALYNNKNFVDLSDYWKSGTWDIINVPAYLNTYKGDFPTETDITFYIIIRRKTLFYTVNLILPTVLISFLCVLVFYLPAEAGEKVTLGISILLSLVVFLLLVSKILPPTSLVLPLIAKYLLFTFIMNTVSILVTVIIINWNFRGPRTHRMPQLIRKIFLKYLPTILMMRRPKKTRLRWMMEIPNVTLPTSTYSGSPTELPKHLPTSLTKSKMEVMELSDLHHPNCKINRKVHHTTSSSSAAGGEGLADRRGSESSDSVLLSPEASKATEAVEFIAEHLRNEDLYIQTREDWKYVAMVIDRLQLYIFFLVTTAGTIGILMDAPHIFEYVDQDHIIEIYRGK

[1] = molecular target: Amα1/Amα2/Amα8/Amβ1 nAChR (Apis mellifera, UniProt A0A7M7MMZ9+A0A8U0WQ70+A0A8U0WQC0+A0A8U0WQD1); assay: two-electrode voltage clamp of Xenopus oocytes, agonist concentration-response; assay type: cell-based
Chain of Amα1/Amα2/Amα8/Amβ1 nAChR (A0A8U0WQD1 18-541, one chain of several): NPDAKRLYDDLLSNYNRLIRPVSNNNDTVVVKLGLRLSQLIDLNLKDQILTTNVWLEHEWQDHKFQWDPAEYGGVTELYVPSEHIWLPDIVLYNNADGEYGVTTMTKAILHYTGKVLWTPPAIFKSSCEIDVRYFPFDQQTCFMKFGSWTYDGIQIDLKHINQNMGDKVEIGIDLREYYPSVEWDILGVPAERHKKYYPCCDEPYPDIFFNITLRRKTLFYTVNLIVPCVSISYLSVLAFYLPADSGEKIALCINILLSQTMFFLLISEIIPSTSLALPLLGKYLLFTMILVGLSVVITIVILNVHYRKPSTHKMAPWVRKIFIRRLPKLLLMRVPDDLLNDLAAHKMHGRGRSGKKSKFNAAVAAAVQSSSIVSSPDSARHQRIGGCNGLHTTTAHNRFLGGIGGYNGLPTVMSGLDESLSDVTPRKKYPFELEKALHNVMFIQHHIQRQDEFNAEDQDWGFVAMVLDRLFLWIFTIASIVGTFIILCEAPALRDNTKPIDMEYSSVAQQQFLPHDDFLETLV

Row | Compound | Emax (Amα1/Amα8/Amβ1 nAChR; read-out: Imidacloprid / Imax) [%] | EC50 [1] [nM] | Emax (Amα1/Amα8/Amβ1 nAChR; read-out: Clothianidin / Imax) [%] | Emax (Amα1/Amα8/Amβ1 nAChR; read-out: Thiacloprid / Imax) [%]
1 | O=[N+]([O-])NC1=NCCN1Cc1ccc(Cl)nc1 [imidacloprid] | 7.5 ± 0.4 | 33.1 |  | 
2 | CN/C(=N\[N+](=O)[O-])NCc1cnc(Cl)s1 [clothianidin] |  | 8.13 | 78.8 ± 2 | 
3 | N#C/N=C1\SCCN1Cc1ccc(Cl)nc1 [thiacloprid] |  | 6.92 |  | 5.8 ± 0.6
